Results: patent US11058111B2, “Use of multiple charged cationic compounds derived from primary amines or polyamines for microbial fouling control in a water system” (ECOLAB USA INC., priority 2018, dated 2021)

Experiments:
[1] = tested on: biofilm of a mixture of aerobic populations from more than 30 cooling systems in North America; assay: Biofilm growth inhibition test, similar to the MBEC assay; INT or crystal violet stain of biofilm on well walls; format: cell-based; design: key: “−” indicates no detectable growth at the end of test; “+” indicates detectable growth; “+/−” partial growth; “++” more growth; details: 40-48 hours incubation at 32-35° C.
Excerpt: The microbial and biofilm inhibition test protocols used in this example is similar to the MBEC (Minimum Biofilm Eradication Concentration) assay and American Society for Testing and Materials (ASTM) MBEC-[…]-12 (2011) assay, both of which are commonly used. This test protocol can be used laboratory and field applications. The test protocol can be conducted in a 12-well or 96-well tissue culture plate format. The 12-well plate format is mainly for lab based and detailed screening/studies. The 96-well format is developed mainly for field applications. The test protocol starts with the preparation of the water sample to be tested by mixing the water from different water systems or artificial water with known bacterial populations with limited nutrient (16% of medium, 2% (w/w) casitone, 0.8% (w/w) yeast extracts, 4% (v/v) glycerol, 4 ppm FeCl3) and the solution of the treatment chemical. This step usually generates a series of the treated water samples with different concentrations for the treatment chemical(s) (from about 0.8 ppm to 1,000 ppm). Next, 200 μL of each treated water samples were transferred to a 96 well plate or 12 well plate. Usually, six replicates would be tested for each concentration of the treatment chemical(s) and controls with no treatment chemical and no bacterial were also placed in the plate(s). After the treated samples were properly plated, the plate(s) are placed on a slow rotary shaker in a humidity-controlled environment on at 32-35° C. for 40-48 hours of incubation. After this step, the bacterial cultures in the plate(s) were carefully poured out and 250 ul of dyes (350 ppm 2-(4-Iodophenyl)-3-(4-nitrophenyl)-5-phenyltetrazolium chloride (INT) or 2,000 ppm crystal violent (CV) for biofilm matrix stain) was added to each well for activity stain in biofilms on well walls. After 10-15 minutes, pour out the dye and gently wash the wells with deionized water until no colored water is running of the plate(s). After drying the plate(s), each well was inspected visually for staining and results are recorded. Alternatively, use 300 uL ethanol to extract CV dyes and transfer 200 uL of ethanol to a new plate for microtiter plate recording at 590 nm. […] The bacteria used in this example for microbial and/or biofilm growth inhibition test protocols comprised a mixture of aerobic populations from more than 30 cooling systems in North America. The specific species were not specifically identified. Those species were grown on […] agar.

[2] = tested on: mixture of aerobic populations from more than 30 cooling systems in North America; assay: Bacterial growth inhibition test, similar to the MBEC assay; growth recorded visually or by turbidity at 650 nm; format: cell-based; design: key: “−” indicates no detectable growth at the end of test; “+” indicates detectable growth; “+/−” partial growth; “++” more growth; details: 40-48 hours incubation at 32-35° C.
Excerpt: The microbial and biofilm inhibition test protocols used in this example is similar to the MBEC (Minimum Biofilm Eradication Concentration) assay and American Society for Testing and Materials (ASTM) MBEC-[…]-12 (2011) assay, both of which are commonly used. This test protocol can be used laboratory and field applications. The test protocol can be conducted in a 12-well or 96-well tissue culture plate format. The 12-well plate format is mainly for lab based and detailed screening/studies. The 96-well format is developed mainly for field applications. The test protocol starts with the preparation of the water sample to be tested by mixing the water from different water systems or artificial water with known bacterial populations with limited nutrient (16% of medium, 2% (w/w) casitone, 0.8% (w/w) yeast extracts, 4% (v/v) glycerol, 4 ppm FeCl3) and the solution of the treatment chemical. This step usually generates a series of the treated water samples with different concentrations for the treatment chemical(s) (from about 0.8 ppm to 1,000 ppm). Next, 200 μL of each treated water samples were transferred to a 96 well plate or 12 well plate. Usually, six replicates would be tested for each concentration of the treatment chemical(s) and controls with no treatment chemical and no bacterial were also placed in the plate(s). After the treated samples were properly plated, the plate(s) are placed on a slow rotary shaker in a humidity-controlled environment on at 32-35° C. for 40-48 hours of incubation. After the incubation, the bacterial growth in each well of the plate was recorded either visually or by a microplate turbidity reader at 650 nm to determine the minimum bacterial growth inhibition concentration for a treatment chemical. The bacteria used in this example for microbial and/or biofilm growth inhibition test protocols comprised a mixture of aerobic populations from more than 30 cooling systems in North America. The specific species were not specifically identified. Those species were grown on […] agar.

Compound	Biofilm growth ([1]; test concentration 0.8 ppm)	Biofilm growth ([1]; test concentration 1.5 ppm)	Biofilm growth ([1]; test concentration 3 ppm)	Biofilm growth ([1]; test concentration 6 ppm)	Biofilm growth ([1]; test concentration 12 ppm)	Biofilm growth ([1]; test concentration 25 ppm)	Biofilm growth ([1]; test concentration 50 ppm)	Biofilm growth ([1]; test concentration 63 ppm)	Biofilm growth ([1]; test concentration 125 ppm)	Biofilm growth ([1]; test concentration 250 ppm)	Biofilm growth ([1]; test concentration 500 ppm)	Biofilm growth ([1]; test concentration 1000 ppm)	Bacterial growth ([2]; test concentration 0.8 ppm)	Bacterial growth ([2]; test concentration 1.5 ppm)	Bacterial growth ([2]; test concentration 3 ppm)	Bacterial growth ([2]; test concentration 6 ppm)	Bacterial growth ([2]; test concentration 12 ppm)	Bacterial growth ([2]; test concentration 25 ppm)	Bacterial growth ([2]; test concentration 50 ppm)	Bacterial growth ([2]; test concentration 63 ppm)	also measured
3,3′-((3,3′-(octylazanediyl)bis(propanoyl))bis(azanediyl))bis(N,N,N-trimethylpropan-1-aminium) chloride [Compound 4]	+	+	+/−	−	−	−	−	−	−	−	−	−	+	+	+	++	+/−	−	−	−	Bacterial growth ([2]; test concentration 125 ppm): −; Bacterial growth ([2]; test concentration 250 ppm): −; Bacterial growth ([2]; test concentration 500 ppm): −; Bacterial growth ([2]; test concentration 1000 ppm): −
CCCCCCCCCCCCN(CCC(=O)NCCC[N+](C)(C)C)CCC(=O)NCCC[N+](C)(C)C.[Cl-].[Cl-] [Compound 1, 3,3′-((3,3′-(dodecylazanediyl)bis(propanoyl))bis(azanediyl))bis(N,N,N-trimethylpropan-1-aminium) chloride]	+	+	+	+	+	+	+	+	+	+/−	−	−	+	+	+	+	+	+	+	+	Bacterial growth ([2]; test concentration 125 ppm): +; Bacterial growth ([2]; test concentration 250 ppm): +; Bacterial growth ([2]; test concentration 500 ppm): +; Bacterial growth ([2]; test concentration 1000 ppm): −
CCCCCCCCCCCCCCCCN(CCC(=O)NCCC[N+](C)(C)C)CCC(=O)NCCC[N+](C)(C)C.[Cl-].[Cl-] [Compound 2, 3,3′-((3,3′-(hexadecylazanediyl)bis(propanoyl))bis(azanediyl))bis(N,N,N-trimethylpropan-1-aminium) chloride]	+	+	+	+	+	+/−	−	−	−	−	−	−	+	+	+	+	+	+	+/−	−	Bacterial growth ([2]; test concentration 125 ppm): −; Bacterial growth ([2]; test concentration 250 ppm): −; Bacterial growth ([2]; test concentration 500 ppm): −; Bacterial growth ([2]; test concentration 1000 ppm): −
CCCCCCCCC=CCCCCCCCCN(CCC(=O)NCCC[N+](C)(C)C)CCC(=O)NCCC[N+](C)(C)C.[Cl-].[Cl-] [Compound 3, 3,3′-((3,3′-(octadec-9-en-1-ylazanediyl)bis(propanoyl))bis(azanediyl)) bis(N,N,N-trimethylpropan-1-aminium) chloride]	+	+	+	+	+/−	+/−	+/−	−	−	−	−	_	+	+	+	+	+	+	+/−	+/−	Bacterial growth ([2]; test concentration 125 ppm): −; Bacterial growth ([2]; test concentration 250 ppm): −; Bacterial growth ([2]; test concentration 500 ppm): −; Bacterial growth ([2]; test concentration 1000 ppm): −
